From ChEMBL document CHEMBL4842307, “Targeted Isolation of Saalfelduracin B-D from Amycolatopsis saalfeldensis Using LC-MS/MS-Based Molecular Networking” (2021)
Converted amounts (≈) assume the structure as drawn.

What was measured:
Type in all cases: functional
[1] = system: Candida albicans; assay: Antimicrobial activity against Candida albicans SC5314 assessed as growth inhibition after 24 hrs by microdilution assay
[2] = system: Staphylococcus epidermidis; assay: Antimicrobial activity against Staphylococcus epidermis CCM628 assessed as growth inhibition after 24 hrs by microdilution assay
[3] = system: Bacillus subtilis; assay: Antimicrobial activity against Bacillus subtilis ATCC9372 assessed as growth inhibition after 24 hrs by microdilution assay
[4] = system: Escherichia coli; assay: Antimicrobial activity against Escherichia coli ATCC35218 assessed as growth inhibition after 24 hrs by microdilution assay
[5] = system: Staphylococcus aureus; assay: Antimicrobial activity against Staphylococcus aureus ATCC12715 assessed as growth inhibition after 24 hrs by microdilution assay

| Compound | MIC [1] [µg/mL] | MIC [2] [µg/mL] | MIC [3] [µg/mL] | MIC [4] [µg/mL] | MIC [5] [µg/mL] |
| --- | --- | --- | --- | --- | --- |
| C=C(NC(=O)C(=C)NC(=O)c1csc(C2=N[C@@H]3c4csc(n4)[C@H]4NC(=O)c5csc(n5)[C@H]([C@@](C)(O)[C@H](C)O)NC(=O)[C@H]5CSC(=N5)/C(=C/C)NC(=O)[C@H]([C@@H](C)O)NC(=O)c5csc(n5)[C@]3(CC2)NC(=O)[C@H](C)NC(=O)C(=C)NC(=O)[C@H](C)NC(=O)[C@H]([C@@H](C)CC)N[C@@H]2C=Cc3c([C@H](C)O)cc(nc3[C@H]2O)C(=O)O[C@@H]4C)n1)C(N)=O | > 64 | < 0.01 | 0.06 (≈ 0.036 µM) | > 64 | 0.06 (≈ 0.036 µM) |
| C[C@@H]1[C@H](O)[C@@H](C)/C=C/C=C/C=C/C=C/C=C/C=C/C=C/[C@H](O[C@@H]2O[C@H](C)[C@@H](O)[C@H](N)[C@@H]2O)C[C@@H]2O[C@](O)(C[C@@H](O)C[C@@H](O)[C@H](O)CC[C@@H](O)C[C@@H](O)CC(=O)O[C@H]1C)C[C@H](O)[C@H]2C(=O)O [AMPHOTERICIN B] | 0.25 (≈ 0.271 µM) | > 64 | > 64 | > 64 | > 64 |
| O=C(O)c1cn(C2CC2)c2cc(N3CCNCC3)c(F)cc2c1=O [CIPROFLOXACIN] | > 64 | 0.06 (≈ 0.181 µM) | 0.06 (≈ 0.181 µM) | < 0.01 | 0.06 (≈ 0.181 µM) |

Other lines, results leading:

| MIC [1] [µg/mL] | MIC [2] [µg/mL] | MIC [3] [µg/mL] | MIC [4] [µg/mL] | MIC [5] [µg/mL] | Compound |
| --- | --- | --- | --- | --- | --- |
| > 64 | 2 (≈ 1.23 µM) | 8 (≈ 4.93 µM) | > 64 | 8 (≈ 4.93 µM) | C=C(NC(=O)C(=C)NC(=O)c1csc([C@H]2CC[C@]34NC(=O)C(=C)NC(=O)C(=C)NC(=O)C(=C)NC(=O)[C@H](C)N[C@@H]5C=Cc6c([C@H](C)O)cc(nc6[C@H]5O)C(=O)O[C@H](C)[C@H](NC(=O)c5csc(n5)[C@H]([C@@](C)(O)[C@H](C)O)NC(=O)[C@H]5CSC(=N5)/C(=C/C)NC(=O)[C@H]([C@@H](C)O)NC(=O)c5csc3n5)c3nc(cs3)[C@H]4N2)n1)C(=O)O |
| > 64 | 0.25 (≈ 0.153 µM) | 0.25 (≈ 0.153 µM) | > 64 | 0.5 (≈ 0.305 µM) | C=C(NC(=O)C(=C)NC(=O)c1csc([C@H]2CC[C@]34NC(=O)C(=C)NC(=O)C(=C)NC(=O)C(=C)NC(=O)[C@H](C)N[C@@H]5C=Cc6c([C@H](C)O)cc(nc6[C@H]5O)C(=O)O[C@H](C)[C@H](NC(=S)c5csc(n5)[C@H]([C@@](C)(O)[C@H](C)O)NC(=O)[C@H]5CSC(=N5)/C(=C/C)NC(=O)[C@H]([C@@H](C)O)NC(=O)c5csc3n5)c3nc(cs3)[C@H]4N2)n1)C(=O)O |
| > 64 | 0.5 (≈ 0.319 µM) | 1 (≈ 0.638 µM) | > 64 | 2 (≈ 1.28 µM) | C=C(NC(=O)c1csc([C@H]2CC[C@]34NC(=O)C(=C)NC(=O)C(=C)NC(=O)C(=C)NC(=O)[C@H](C)N[C@@H]5C=Cc6c([C@H](C)O)cc(nc6[C@H]5O)C(=O)O[C@H](C)[C@H](NC(=S)c5csc(n5)[C@H]([C@@](C)(O)[C@H](C)O)NC(=O)[C@H]5CSC(=N5)/C(=C/C)NC(=O)[C@H]([C@@H](C)O)NC(=O)c5csc3n5)c3nc(cs3)[C@H]4N2)n1)C(N)=O |
| > 64 | 0.5 (≈ 0.334 µM) | 1 (≈ 0.667 µM) | > 64 | 1 (≈ 0.667 µM) | C=C1NC(=O)C(=C)NC(=O)[C@H](C)N[C@@H]2C=Cc3c([C@H](C)O)cc(nc3[C@H]2O)C(=O)O[C@H](C)[C@@H]2NC(=S)c3csc(n3)[C@H]([C@@](C)(O)[C@H](C)O)NC(=O)[C@H]3CSC(=N3)/C(=C/C)NC(=O)[C@H]([C@@H](C)O)NC(=O)c3csc(n3)[C@]3(CC[C@H](c4nc(C(N)=O)cs4)N[C@@H]3c3csc2n3)NC(=O)C(=C)NC1=O |
